Reference: US12564194B2, “Herbicide mixture, herbicidal composition, method and kit for controlling undesired vegetation” (Adama Agan Ltd., priority 2020, dated 2026)

What was measured:
Assay type in all cases: in vivo
[1] = system: Aegilops tauschii; assay: Soil sealing treatment pot experiment for controlling Aegilops tauschii, more mixing ratios (Example 3)
Description: (§1) Referring to an article of Colby, S. R. i.e., Calculation of the synergistic and antagonistic response of herbicide combinations. Weeds 1967, 15, pp. 20-22 (which is incorporated herein in its entirety by reference), the theoretical value E0 of a given mixture of three active ingredients may be predicted according to the following equation, then evaluating whether there is synergy.
(§2) [formula] • wherein: • E0 is the theoretical fresh weight survival rate for the mixture of pyroxasulfone, chlorotoluron and […]; • X is the measured fresh weight survival rate for pyroxasulfone used alone in the same dosage as that in the mixture; • Y is the measured fresh weight survival rate for chlorotoluron used alone in the same dosage as that in the mixture; • Z is the measured fresh weight survival rate for mesosulfuron-methyl used alone in the same dosage as that in the mixture. • E is the measured fresh weight survival rate for the mixture of pyroxasulfone, chlorotoluron and mesosulfuron-methyl. • E0-E value is calculated to evaluate the combined effect of pyroxasulfone, chlorotoluron and mesosulfuron-methyl on the selected weeds.
(§3) In this example, the herbicidal activity of a mixture of pyroxasulfone, chlorotoluron and mesosulfuron-methyl for soil sealing treatment to control Aegilops tauschii is investigated by a pot experiment method under the conditions of a glass greenhouse. This example is carried out in accordance with “NY/T 1155.4-2006 Guidelines for Indoor Bioassay Tests of Pesticides, Herbicides Part 4: Activity Determination Tests, Stem and Leaf Spray Method”.
(§4) • Pyroxasulfone: pyroxasulfone (850 g/Kg, WG) from Adama Agan LTD. • Chlorotoluron: chlorotoluron (90 wt %, WG) from Adama Agan LTD. • Mesosulfuron-methyl: Sigma (30 g/L, OD) from Bayer AG. • Test location: Greenhouse of Institute of Plant Protection, Shandong Academy of Agricultural Sciences • Cultivation of test materials: The test soil is formed by mixing the 20 cm layer loam on the ground surface and the culture medium in a ratio of 3:1 as cultivation soil.
(§5) The test weeds are cultivated in a glass greenhouse at a temperature of 15-30° C. and natural light. A certain amount of Aegilops tauschil seeds are sown in a plastic pot with a diameter of 9 cm, covering with 1-2 mm soil, and putting them in an enamel dish filled with water. The bottom infiltration method is used to water them, waiting for the water to seep to the soil surface, and then transferring to a glass greenhouse for cultivation. The agents are applied on the second day after sowing Aegilops tauschii seeds.
(§6) For each active ingredient, the multiple dilution method is used to obtain the other five lower dosages from the highest dosage. A certain amount of agent is measured by pipette or balance, adding it directly to the water, and then diluting it to the required dosage by the multiple dilution method.
(§7) Spraying treatment: ASS-4 automatic control spraying system with a fan-shaped nozzle is used indoors to spray agent, the running speed is adjusted based on nozzle pressure, flow rate, etc. to spray 50 mL of chemical solution on the actual spray area of 1.1 m^2 (equivalent to 30 liters per mu), arranging the plastic pots to be processed on the spraying table evenly, and spraying evenly. The spraying pressure is 0.35 MPa, and the flow rate of the fan-shaped nozzle is 800 mL/min, spraying in order from low dosage to high dosage. Each treatment is repeated 3 times. After spraying, let it dry for one day, placing it in a glass greenhouse, and watering it regularly to keep moist.
Weed investigation method and time: after applying the agent, the symptoms of weed damage (such as growth inhibition, chlorosis, deformity, etc.) are recorded in detail. After 35 days, the fresh weight of aerial part of the weeds in each treatment is weighed, and the measured fresh weight inhibition rate and the measured fresh weight survival rate for each treatment are calculated according to the following equations: […]

[2] = system: Aegilops tauschii; assay: Soil sealing treatment pot experiment for controlling Aegilops tauschii (Example 1)
Description: as §1, §2, §3, §4, §5, §6, §7
Application time and frequency: the experiment is conducted on the second day after sowing Aegilops tauschii seeds, and the soil is evenly sprayed. The application time is Mar. 10, 2020, with one application.
Weed investigation method and time: after applying the agent, the symptoms of weed damage (such as growth inhibition, chlorosis, deformity, etc.) are recorded in detail. […]

[3] = system: Lolium multiflorum Lamk; assay: Soil sealing treatment pot experiment for controlling Lolium multiflorum Lamk (Example 2)
[4] = single active ingredient, summary of Table 2

SMILES: Cn1nc(C(F)(F)F)c(CS(=O)(=O)C2=NOC(C)(C)C2)c1OC(F)F [pyroxasulfone, 3-[(5-difluoromethoxy-1-methyl-3-trifluoromethylpyrazol-4-yl)methylsulfonyl]-4,5-dihydro-5,5-dimethyl-1,2-isoxazole]
- Actual fresh weight survival rate (%) - E ([1]; 45 gai/ha): 75.0%
- Actual fresh weight survival rate (%) - E ([1]; 90 gai/ha): 51.7%
- Actual fresh weight survival rate (%) - E ([1]; 180 gai/ha): 34.5%
- inhibition at 45 g/ha ([1]; Aegilops tauschii, soil, 45 gai/ha, read-out: Actual fresh weight inhibition rate %): 25%
- inhibition at 90 g/ha ([1]; Aegilops tauschii, soil, 90 gai/ha, read-out: Actual fresh weight inhibition rate %): 48.3%
- inhibition at 180 g/ha ([1]; Aegilops tauschii, soil, 180 gai/ha, read-out: Actual fresh weight inhibition rate %): 65.5%
- Measured fresh weight survival rate (%) - E ([2]; 5.625 gai/ha, 35 days): 101.3%
- Measured fresh weight survival rate (%) - E ([2]; 11.25 gai/ha, 35 days): 97.4%
- Measured fresh weight survival rate (%) - E ([2]; 22.5 gai/ha, 35 days): 98.7%
- Measured fresh weight survival rate (%) - E ([2]; 45 gai/ha, 35 days): 79.22%
- Measured fresh weight survival rate (%) - E ([2]; 90 gai/ha, 35 days): 75.32%
- Measured fresh weight survival rate (%) - E ([2]; 180 gai/ha, 35 days): 54.55%
- inhibition at 5.625 g/ha ([2]; Aegilops tauschii, soil, 840 h, 5.625 gai/ha, 35 days, read-out: Measured fresh weight inhibition rate (%)): -1.3%
- inhibition at 11.25 g/ha ([2]; Aegilops tauschii, soil, 840 h, 11.25 gai/ha, 35 days, read-out: Measured fresh weight inhibition rate (%)): 2.6%
- inhibition at 22.5 g/ha ([2]; Aegilops tauschii, soil, 840 h, 22.5 gai/ha, 35 days, read-out: Measured fresh weight inhibition rate (%)): 1.3%
- inhibition at 45 g/ha ([2]; Aegilops tauschii, soil, 840 h, 45 gai/ha, 35 days, read-out: Measured fresh weight inhibition rate (%)): 20.8%
- inhibition at 90 g/ha ([2]; Aegilops tauschii, soil, 840 h, 90 gai/ha, 35 days, read-out: Measured fresh weight inhibition rate (%)): 24.7%
- inhibition at 180 g/ha ([2]; Aegilops tauschii, soil, 840 h, 180 gai/ha, 35 days, read-out: Measured fresh weight inhibition rate (%)): 45.5%
- control effect on Aegilops tauschii [2, 4]: certain effect
- Measured fresh weight survival rate (%) - E ([3]; 5.625 gai/ha, 35 days): 69.23%
- Measured fresh weight survival rate (%) - E ([3]; 11.25 gai/ha, 35 days): 53.85%
- Measured fresh weight survival rate (%) - E ([3]; 22.5 gai/ha, 35 days): 51.65%
- Measured fresh weight survival rate (%) - E ([3]; 45 gai/ha, 35 days): 20.88%
- Measured fresh weight survival rate (%) - E ([3]; 90 gai/ha, 35 days): 0%
- Measured fresh weight survival rate (%) - E ([3]; 180 gai/ha, 35 days): 0%
- inhibition at 5.625 g/ha ([3]; Lolium multiflorum, soil, 840 h, 5.625 gai/ha, 35 days, read-out: Measured fresh weight inhibition rate (%)): 30.8%
- inhibition at 11.25 g/ha ([3]; Lolium multiflorum, soil, 840 h, 11.25 gai/ha, 35 days, read-out: Measured fresh weight inhibition rate (%)): 46.1%
- inhibition at 22.5 g/ha ([3]; Lolium multiflorum, soil, 840 h, 22.5 gai/ha, 35 days, read-out: Measured fresh weight inhibition rate (%)): 48.4%
- inhibition at 45 g/ha ([3]; Lolium multiflorum, soil, 840 h, 45 gai/ha, 35 days, read-out: Measured fresh weight inhibition rate (%)): 79.1%
- inhibition at 90 g/ha ([3]; Lolium multiflorum, soil, 840 h, 90 gai/ha, 35 days, read-out: Measured fresh weight inhibition rate (%)): 100%
- inhibition at 180 g/ha ([3]; Lolium multiflorum, soil, 840 h, 180 gai/ha, 35 days, read-out: Measured fresh weight inhibition rate (%)): 100%
- effect on Lolium multiflorum Lamk [3, 4]: best effect
